Numbers after ± are expanded uncertainties.
Assay: mn = molality of the nth substance listed, in mol/kg
Conditions: 100 kPa, Liquid, Vibrating tube method

## N[C@@H](Cc1ccccc1)C(=O)O [L-phenylalanine] + O
278.65 K, m1 = 0.0036
  mass density: 1000.12 ± 0.11 kg/m3
278.65 K, m1 = 0.011
  mass density: 1000.47 ± 0.11 kg/m3
278.65 K, m1 = 0.0183
  mass density: 1000.81 ± 0.11 kg/m3
278.65 K, m1 = 0.033
  mass density: 1001.48 ± 0.12 kg/m3
278.65 K, m1 = 0.0443
  mass density: 1002.05 ± 0.12 kg/m3
278.65 K, m1 = 0.0536
  mass density: 1002.44 ± 0.11 kg/m3
278.65 K, m1 = 0.0623
  mass density: 1002.85 ± 0.12 kg/m3
278.65 K, m1 = 0.074
  mass density: 1003.39 ± 0.12 kg/m3
278.65 K, m1 = 0.0855
  mass density: 1003.94 ± 0.12 kg/m3
278.65 K, m1 = 0.0981
  mass density: 1004.54 ± 0.12 kg/m3
278.65 K, m1 = 0.1158
  mass density: 1005.4 ± 0.12 kg/m3
279.15 K, m1 = 0.0036
  mass density: 1000.11 ± 0.11 kg/m3
279.15 K, m1 = 0.011
  mass density: 1000.45 ± 0.11 kg/m3
279.15 K, m1 = 0.0183
  mass density: 1000.79 ± 0.11 kg/m3
279.15 K, m1 = 0.033
  mass density: 1001.47 ± 0.12 kg/m3
279.15 K, m1 = 0.0443
  mass density: 1002.04 ± 0.12 kg/m3
279.15 K, m1 = 0.0536
  mass density: 1002.42 ± 0.11 kg/m3
279.15 K, m1 = 0.0623
  mass density: 1002.83 ± 0.12 kg/m3
279.15 K, m1 = 0.074
  mass density: 1003.37 ± 0.12 kg/m3
279.15 K, m1 = 0.0855
  mass density: 1003.92 ± 0.12 kg/m3
279.15 K, m1 = 0.0981
  mass density: 1004.51 ± 0.12 kg/m3
279.15 K, m1 = 0.1158
  mass density: 1005.38 ± 0.12 kg/m3
279.65 K, m1 = 0.0036
  mass density: 1000.09 ± 0.11 kg/m3
279.65 K, m1 = 0.011
  mass density: 1000.43 ± 0.11 kg/m3
279.65 K, m1 = 0.0183
  mass density: 1000.77 ± 0.11 kg/m3
279.65 K, m1 = 0.033
  mass density: 1001.45 ± 0.12 kg/m3
279.65 K, m1 = 0.0443
  mass density: 1002.02 ± 0.12 kg/m3
279.65 K, m1 = 0.0536
  mass density: 1002.4 ± 0.11 kg/m3
279.65 K, m1 = 0.0623
  mass density: 1002.81 ± 0.12 kg/m3
279.65 K, m1 = 0.074
  mass density: 1003.34 ± 0.12 kg/m3
279.65 K, m1 = 0.0855
  mass density: 1003.89 ± 0.12 kg/m3
279.65 K, m1 = 0.0981
  mass density: 1004.49 ± 0.12 kg/m3
279.65 K, m1 = 0.1158
  mass density: 1005.35 ± 0.12 kg/m3
280.15 K, m1 = 0.0036
  mass density: 1000.07 ± 0.11 kg/m3
280.15 K, m1 = 0.011
  mass density: 1000.41 ± 0.11 kg/m3
280.15 K, m1 = 0.0183
  mass density: 1000.75 ± 0.11 kg/m3
280.15 K, m1 = 0.033
  mass density: 1001.42 ± 0.12 kg/m3
280.15 K, m1 = 0.0443
  mass density: 1001.99 ± 0.12 kg/m3
280.15 K, m1 = 0.0536
  mass density: 1002.37 ± 0.11 kg/m3
280.15 K, m1 = 0.0623
  mass density: 1002.78 ± 0.12 kg/m3
280.15 K, m1 = 0.074
  mass density: 1003.32 ± 0.12 kg/m3
280.15 K, m1 = 0.0855
  mass density: 1003.87 ± 0.12 kg/m3
280.15 K, m1 = 0.0981
  mass density: 1004.46 ± 0.12 kg/m3
280.15 K, m1 = 0.1158
  mass density: 1005.32 ± 0.12 kg/m3
280.65 K, m1 = 0.0036
  mass density: 1000.04 ± 0.11 kg/m3
280.65 K, m1 = 0.011
  mass density: 1000.39 ± 0.11 kg/m3
280.65 K, m1 = 0.0183
  mass density: 1000.73 ± 0.11 kg/m3
280.65 K, m1 = 0.033
  mass density: 1001.39 ± 0.12 kg/m3
280.65 K, m1 = 0.0443
  mass density: 1001.96 ± 0.12 kg/m3
280.65 K, m1 = 0.0536
  mass density: 1002.35 ± 0.11 kg/m3
280.65 K, m1 = 0.0623
  mass density: 1002.75 ± 0.11 kg/m3
280.65 K, m1 = 0.074
  mass density: 1003.28 ± 0.12 kg/m3
280.65 K, m1 = 0.0855
  mass density: 1003.83 ± 0.12 kg/m3
280.65 K, m1 = 0.0981
  mass density: 1004.43 ± 0.12 kg/m3
280.65 K, m1 = 0.1158
  mass density: 1005.28 ± 0.12 kg/m3
281.15 K, m1 = 0.0036
  mass density: 1000.02 ± 0.11 kg/m3
281.15 K, m1 = 0.011
  mass density: 1000.36 ± 0.11 kg/m3
281.15 K, m1 = 0.0183
  mass density: 1000.7 ± 0.11 kg/m3
281.15 K, m1 = 0.033
  mass density: 1001.36 ± 0.12 kg/m3
281.15 K, m1 = 0.0443
  mass density: 1001.93 ± 0.11 kg/m3
281.15 K, m1 = 0.0536
  mass density: 1002.31 ± 0.11 kg/m3
281.15 K, m1 = 0.0623
  mass density: 1002.72 ± 0.11 kg/m3
281.15 K, m1 = 0.074
  mass density: 1003.25 ± 0.12 kg/m3
281.15 K, m1 = 0.0855
  mass density: 1003.8 ± 0.12 kg/m3
281.15 K, m1 = 0.0981
  mass density: 1004.39 ± 0.12 kg/m3
281.15 K, m1 = 0.1158
  mass density: 1005.24 ± 0.12 kg/m3
281.65 K, m1 = 0.0036
  mass density: 999.986 ± 0.11 kg/m3
281.65 K, m1 = 0.011
  mass density: 1000.33 ± 0.11 kg/m3
281.65 K, m1 = 0.0183
  mass density: 1000.66 ± 0.11 kg/m3
281.65 K, m1 = 0.033
  mass density: 1001.33 ± 0.12 kg/m3
281.65 K, m1 = 0.0443
  mass density: 1001.9 ± 0.11 kg/m3
281.65 K, m1 = 0.0536
  mass density: 1002.28 ± 0.11 kg/m3
281.65 K, m1 = 0.0623
  mass density: 1002.68 ± 0.11 kg/m3
281.65 K, m1 = 0.074
  mass density: 1003.21 ± 0.12 kg/m3
281.65 K, m1 = 0.0855
  mass density: 1003.76 ± 0.12 kg/m3
281.65 K, m1 = 0.0981
  mass density: 1004.35 ± 0.12 kg/m3
281.65 K, m1 = 0.1158
  mass density: 1005.2 ± 0.12 kg/m3
282.15 K, m1 = 0.0036
  mass density: 999.952 ± 0.11 kg/m3
282.15 K, m1 = 0.011
  mass density: 1000.29 ± 0.11 kg/m3
282.15 K, m1 = 0.0183
  mass density: 1000.63 ± 0.11 kg/m3
282.15 K, m1 = 0.033
  mass density: 1001.29 ± 0.12 kg/m3
282.15 K, m1 = 0.0443
  mass density: 1001.86 ± 0.11 kg/m3
282.15 K, m1 = 0.0536
  mass density: 1002.24 ± 0.11 kg/m3
282.15 K, m1 = 0.0623
  mass density: 1002.64 ± 0.11 kg/m3
282.15 K, m1 = 0.074
  mass density: 1003.17 ± 0.12 kg/m3
282.15 K, m1 = 0.0855
  mass density: 1003.72 ± 0.12 kg/m3
282.15 K, m1 = 0.0981
  mass density: 1004.31 ± 0.12 kg/m3
282.15 K, m1 = 0.1158
  mass density: 1005.16 ± 0.12 kg/m3
282.65 K, m1 = 0.0036
  mass density: 999.913 ± 0.11 kg/m3
282.65 K, m1 = 0.011
  mass density: 1000.25 ± 0.11 kg/m3
282.65 K, m1 = 0.0183
  mass density: 1000.59 ± 0.11 kg/m3
282.65 K, m1 = 0.033
  mass density: 1001.25 ± 0.12 kg/m3
282.65 K, m1 = 0.0443
  mass density: 1001.82 ± 0.11 kg/m3
282.65 K, m1 = 0.0536
  mass density: 1002.19 ± 0.11 kg/m3
282.65 K, m1 = 0.0623
  mass density: 1002.6 ± 0.11 kg/m3
282.65 K, m1 = 0.074
  mass density: 1003.13 ± 0.12 kg/m3
282.65 K, m1 = 0.0855
  mass density: 1003.67 ± 0.12 kg/m3
282.65 K, m1 = 0.0981
  mass density: 1004.26 ± 0.12 kg/m3
282.65 K, m1 = 0.1158
  mass density: 1005.11 ± 0.12 kg/m3
283.15 K, m1 = 0.0036
  mass density: 999.87 ± 0.11 kg/m3
283.15 K, m1 = 0.011
  mass density: 1000.21 ± 0.11 kg/m3
283.15 K, m1 = 0.0183
  mass density: 1000.54 ± 0.11 kg/m3
283.15 K, m1 = 0.033
  mass density: 1001.21 ± 0.12 kg/m3
283.15 K, m1 = 0.0443
  mass density: 1001.77 ± 0.11 kg/m3
283.15 K, m1 = 0.0536
  mass density: 1002.15 ± 0.11 kg/m3
283.15 K, m1 = 0.0623
  mass density: 1002.55 ± 0.11 kg/m3
283.15 K, m1 = 0.074
  mass density: 1003.08 ± 0.12 kg/m3
283.15 K, m1 = 0.0855
  mass density: 1003.63 ± 0.12 kg/m3
283.15 K, m1 = 0.0981
  mass density: 1004.21 ± 0.12 kg/m3
283.15 K, m1 = 0.1158
  mass density: 1005.06 ± 0.12 kg/m3

— the NIST ThermoML archive (doi:10.1021/acs.jced.9b00752)
